Assay results taken from ChEMBL document CHEMBL4418271, “Novel Ethanediamone Hepcidine Antagonists” (2012).

How the values were obtained:
Ferroportin = Ferroportin (Homo sapiens, UniProt Q9NP59); assay: Inhibition of human hepcidin-stimulated recombinant C-terminal Halo-tagged human FPN internalization in MDCK cells incubated for 15 to 20 mins by Halo-tagged TMR based fluorescence assay; type: cell-based
Hepcidin (Homo sapiens) = target: T1, Hepcidin (Homo sapiens) (UniProt P81172); assay: Inhibition of human hepcidin-stimulated recombinant C-terminal Halo-tagged human FPN internalization in MDCK cells at 10 uM incubated for 15 to 20 mins by Halo-tagged TMR based fluorescence assay relative to control; type: cell-based
T1 sequence (whole entry): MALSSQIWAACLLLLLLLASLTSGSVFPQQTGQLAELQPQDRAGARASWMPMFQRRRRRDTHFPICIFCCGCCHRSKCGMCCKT

Ferroportin, sequence (Q9NP59 whole entry, looked up): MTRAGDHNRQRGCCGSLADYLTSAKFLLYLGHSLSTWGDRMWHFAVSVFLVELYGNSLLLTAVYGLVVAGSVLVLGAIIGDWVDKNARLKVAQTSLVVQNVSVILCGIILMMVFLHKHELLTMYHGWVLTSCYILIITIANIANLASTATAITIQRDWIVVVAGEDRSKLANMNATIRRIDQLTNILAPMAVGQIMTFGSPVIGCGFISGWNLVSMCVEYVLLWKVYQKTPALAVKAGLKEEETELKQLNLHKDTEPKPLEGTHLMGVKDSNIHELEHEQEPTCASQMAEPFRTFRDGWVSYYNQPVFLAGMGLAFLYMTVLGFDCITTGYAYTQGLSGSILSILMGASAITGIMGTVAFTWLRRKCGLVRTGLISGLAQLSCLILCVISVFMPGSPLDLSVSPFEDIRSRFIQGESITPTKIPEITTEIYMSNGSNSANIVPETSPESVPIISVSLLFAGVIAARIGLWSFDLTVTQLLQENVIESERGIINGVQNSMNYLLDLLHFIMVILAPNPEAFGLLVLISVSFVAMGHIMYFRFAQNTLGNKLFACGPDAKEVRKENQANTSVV

| SMILES | IC50 (Ferroportin) | inhibition (Hepcidin (Homo sapiens)) |
| --- | --- | --- |
| COCCN1CCN(C(CN2CCC(C(=O)NC3CCCCC3)CC2)c2ccccc2)CC1 (configuration not stated) | > 100 µM |  |
| COCCN1CCN(C(CN2CCC(N3CCCCC3)CC2)c2ccc(Cl)cc2)CC1 (configuration not stated) | > 100 µM |  |
| COc1ccccc1C(=O)N1CCN(CC(NCc2ccccn2)c2ccc(F)cc2)CC1 (configuration not stated) | < 50 µM |  |
| COCCN1CCN(C(CN2CCC(N3CCN(C)CC3)CC2)c2ccccc2)CC1 (configuration not stated) | > 100 µM |  |
| NC(CN1CCN(C(=O)C2CCCO2)CC1)c1ccc(F)cc1 (configuration not stated) | > 100 µM |  |
| c1ccc(C(CN2CCN(c3cnccn3)CC2)NCc2ccccn2)cc1 (configuration not stated) | > 100 µM |  |
| COCCNC(CN1CCN(C(=O)C2CCCO2)CC1)c1ccc(F)cc1 (configuration not stated) | > 100 µM |  |
| COCCN1CCN(C(CN2CCC(N3CCCCC3)CC2)c2ccc(F)cc2)CC1 (configuration not stated) | < 50 µM |  |
| COCCN1CCN(C(CN2CCC(N3CCCC3)CC2)c2ccccc2)CC1 (configuration not stated) | < 50 µM |  |
| COCCN1CCN(C(CN2CCC(NC(=O)C(C)C)CC2)c2ccccc2)CC1 (configuration not stated) | < 100 µM |  |
| COCCN1CCN(C(CN2CCC(N3CCCCC3)CC2)c2ccccc2Cl)CC1 (configuration not stated) | > 100 µM |  |
| COCCN1CCN(C(CN2CCC(N3CCOCC3)CC2)c2ccccc2)CC1 (configuration not stated) | < 50 µM |  |
| c1ccc(CNC(CN2CCN(c3cnccn3)CC2)c2ccncc2)nc1 (configuration not stated) | > 100 µM |  |
| COCCN1CCN(C(CN2CCC(N3CCCCC3)CC2)c2ccc(C)cc2)CC1 (configuration not stated) | < 50 µM |  |
| CCCCN1CCN(C(CN2CCC(N3CCCCC3)CC2)c2ccccc2)CC1 (configuration not stated) | > 100 µM |  |
| CCN(CC)CCN1CCN(C(CN2CCC(N3CCCCC3)CC2)c2ccccc2)CC1 (configuration not stated) | > 100 µM |  |
| COCCCN1CCN(C(CN2CCC(N3CCCCC3)CC2)c2ccccc2)CC1 (configuration not stated) | < 50 µM |  |
| O=S(=O)(c1ccccc1)N1CCN(CC(NCc2ccccn2)c2ccc(F)cc2)CC1 (configuration not stated) | > 100 µM |  |
| Fc1ccc(C(CN2CCN(c3ccccc3)CC2)NCc2ccccn2)cc1 (configuration not stated) | > 100 µM |  |
| COCCN1CCN(C(CN2CCC(NC(=O)C3CCCCC3)CC2)c2ccccc2)CC1 (configuration not stated) | < 50 µM |  |
| O=C(C1CCCO1)N1CCN(CC(NCc2ccccn2)c2ccccc2)CC1 (configuration not stated) |  | < 50% |
| O=C(c1ccccn1)N1CCN(CC(NCc2ccccn2)c2ccc(F)cc2)CC1 (configuration not stated) | > 100 µM |  |
| Clc1ccc(C(CN2CCN(c3cnccn3)CC2)NCc2ccccn2)cc1 (configuration not stated) | > 100 µM |  |
| Fc1ccc(C(CN2CCN(c3ccccn3)CC2)NCc2ccccn2)cc1 (configuration not stated) | > 100 µM |  |

| SMILES | IC50 (Ferroportin) | inhibition (Hepcidin (Homo sapiens)) |
| --- | --- | --- |
| COCCN1CCN(C(CN2CCC(NC(=O)c3ccccc3)CC2)c2ccccc2)CC1 (configuration not stated) | > 100 µM |  |
| COCCNC(CN1CCN(c2cnccn2)CC1)c1ccc(F)cc1 (configuration not stated) | > 100 µM |  |
| COCCN1CCN(C(CN2CCCCC2)c2ccccc2)CC1 (configuration not stated) | < 100 µM |  |
| COCCN1CCN(C(CN2CCC(C3CCCCC3)CC2)c2ccccc2)CC1 (configuration not stated) | > 100 µM |  |
| CN(CCN(C)c1cnccn1)CC(NCc1ccccn1)c1ccc(F)cc1 (configuration not stated) | < 50 µM |  |
| Fc1cccc(C(CN2CCN(c3cnccn3)CC2)NCc2ccccn2)c1 (configuration not stated) | > 100 µM |  |
| COCCN1CCN(C(CN2CCC(N3CCCCC3)CC2)c2ccc(C#N)cc2)CC1 (configuration not stated) | < 50 µM |  |
| COCCN1CCN(C(CN2CCC(Nc3ccccc3)CC2)c2ccccc2)CC1 (configuration not stated) | > 100 µM |  |
| COc1ccc(CNC(CN2CCC(N3CCCCC3)CC2)c2ccccc2)cc1 (configuration not stated) | < 100 µM | < 50% |
| O=C(C1CCCO1)N1CCN(CC(NCc2ccccn2)c2ccc(F)cc2)CC1 (configuration not stated) |  | < 50% |
| COCCN1CCN(C(CN2CCC(N3CCCCC3)CC2)c2cccc(OC)c2)CC1 (configuration not stated) | < 100 µM |  |
| Fc1ccccc1C(CN1CCN(c2cnccn2)CC1)NCc1ccccn1 (configuration not stated) | > 100 µM |  |
| COCCN1CCN(C(CN2CCOCC2)c2ccccc2)CC1 (configuration not stated) | > 100 µM |  |
| COCCN1CCN(C(CN2CCC(C(=O)Nc3ccccc3)CC2)c2ccccc2)CC1 (configuration not stated) | < 100 µM |  |
| CNC(=O)C1CCN(CC(c2ccccc2)N2CCN(CCOC)CC2)CC1 (configuration not stated) | < 100 µM |  |
| c1ccc(C(CN2CCC(N3CCCCC3)CC2)N2CCN(C3CCCC3)CC2)cc1 (configuration not stated) | > 100 µM |  |
| COCCN1CCN(C(CN2CCC(N3CCCCC3)CC2)c2ccc(OC(C)C)cc2)CC1 (configuration not stated) | > 100 µM |  |
| COCCN1CCN(C(CN2CCC(N3CCC(C)CC3)CC2)c2ccccc2)CC1 (configuration not stated) | < 100 µM |  |
| O=C(C1CCCO1)N1CCN(CC(NCc2ccccc2)c2ccc(F)cc2)CC1 (configuration not stated) | > 100 µM |  |
| Fc1ccc(C(CN2CCN(c3cnccn3)CC2)NCc2cccs2)cc1 (configuration not stated) | > 50 µM |  |
| NC(CN1CCN(c2cnccn2)CC1)c1ccc(F)cc1 (configuration not stated) | > 100 µM |  |
| COCCN1CCN(C(CN2CCN(c3ccccc3)CC2)c2ccccc2)CC1 (configuration not stated) | > 100 µM |  |
| COCCN1CCN(C(CN2CCC(N3CCCCC3)CC2)c2ccc(C(F)(F)F)cc2)CC1 (configuration not stated) | < 50 µM |  |

Continued, values first:

| IC50 (Ferroportin) | inhibition (Hepcidin (Homo sapiens)) | SMILES |
| --- | --- | --- |
| < 50 µM |  | COCCN1CCN(C(CN2CCC(N(C)C)CC2)c2ccccc2)CC1 (configuration not stated) |
| > 100 µM |  | O=C(C1CCCO1)N1CCN(C(CN2CCC(N3CCCCC3)CC2)c2ccccc2)CC1 (configuration not stated) |
| > 100 µM |  | COCCC1CCN(C(CN2CCC(N3CCCCC3)CC2)c2ccccc2)CC1 (configuration not stated) |
| < 50 µM |  | CCN(CC)C1CCN(CC(c2ccccc2)N2CCN(CCOC)CC2)CC1 (configuration not stated) |
| > 100 µM |  | O=C(C1CCCO1)N1CCN(CC(NCc2ccccc2)c2ccccc2)CC1 (configuration not stated) |
| < 100 µM |  | COCCN1CCN(C(CN2CCC(NC(C)=O)CC2)c2ccccc2)CC1 (configuration not stated) |
| > 100 µM |  | CC(=O)N1CCN(CC(NCc2ccccn2)c2ccc(F)cc2)CC1 (configuration not stated) |
| < 50 µM | > 50% | COCCN1CCN(C(CN2CCC(N3CCCCC3)CC2)c2ccccc2)CC1 (configuration not stated) |
| < 100 µM | < 50% | c1ccc(C(CN2CCC(N3CCCCC3)CC2)NCCN2CCOCC2)cc1 (configuration not stated) |
| < 50 µM | > 50% | Fc1ccc(C(CN2CCN(c3cnccn3)CC2)NCc2ccccn2)cc1 (configuration not stated) |
| > 100 µM |  | CC(C)N1CCN(C(CN2CCC(N3CCCCC3)CC2)c2ccccc2)CC1 (configuration not stated) |
| < 50 µM |  | c1ccc(C(CN2CCC(N3CCCCC3)CC2)N2CCN(CC3CCCO3)CC2)cc1 (configuration not stated) |
| < 50 µM |  | CCOCCN1CCN(C(CN2CCC(N3CCCCC3)CC2)c2ccccc2)CC1 (configuration not stated) |
| > 100 µM |  | c1ccc(C(CN2CCC(N3CCCCC3)CC2)N2CCN(c3cnccn3)CC2)cc1 (configuration not stated) |
| < 50 µM |  | COCCN1CCN(C(CN2CCC(N3CCCCC3)CC2)c2ccc(OC)cc2)CC1 (configuration not stated) |
| > 100 µM |  | CCOC(=O)C1CCN(CC(c2ccccc2)N2CCN(CCOC)CC2)CC1 (configuration not stated) |
| > 100 µM |  | c1ccc(C(CN2CCC(N3CCCCC3)CC2)N2CCN(c3ccccn3)CC2)cc1 (configuration not stated) |
| > 100 µM |  | COCCN1CCN(C(CN2CCC(N3CCCCC3)CC2)c2cccc(Cl)c2)CC1 (configuration not stated) |
| > 100 µM |  | c1ccc(C(CN2CCC(N3CCCCC3)CC2)N2CCN(CCn3ccnc3)CC2)cc1 (configuration not stated) |
| > 100 µM |  | COc1ccc(CNC(CN2CCCCC2)c2ccccc2)cc1 (configuration not stated) |
| < 50 µM |  | COCCN1CCN(C(CN2CCC(NC3CCCC3)CC2)c2ccccc2)CC1 (configuration not stated) |
| < 100 µM |  | c1ccc(C(CN2CCCCC2)NCCN2CCOCC2)cc1 (configuration not stated) |
| > 100 µM |  | O=C(C1CCCO1)N1CCN(CC(NCc2cccs2)c2ccc(F)cc2)CC1 (configuration not stated) |
| < 50 µM |  | COCCN1CCCN(C(CN2CCC(N3CCCCC3)CC2)c2ccccc2)CC1 (configuration not stated) |
| > 50 µM |  | Fc1ccc(C(CN2CCN(c3cnccn3)CC2)NCc2ccccc2)cc1 (configuration not stated) |
| > 100 µM |  | CCOc1ccc(C(CN2CCC(N3CCCCC3)CC2)N2CCN(CCOC)CC2)cc1 (configuration not stated) |
